Among the data in patent publication US20070135383A1, “Phospholipase inhibitors, including multi-valent phospholipase inhibitors, and use thereof, including as lumen-localized phospholipase inhibitors” (priority 2005, published 2007) are IC50 values, retold here.

Test [1] addresses T1, human group 1B PLA2 (hps PLA2) (Homo sapiens, UniProt P04054).
T1 construct: made in house; host or cells: E. coli
Briefly: Fluorimetric PPyrPM assay for group 1B PLA2 inhibition (Example 12). In kind it is biochemical. Conditions: human pancreas secreted PLA2; read-out: ILYPSA IC50 hps PLA2.

Test [2] deals with T2, mouse group 1B PLA2 (mps PLA2) (Mus musculus, UniProt Q9Z0Y2).
T2 construct: made in house; host or cells: E. coli
T2 sequence (Q9Z0Y2 23-146): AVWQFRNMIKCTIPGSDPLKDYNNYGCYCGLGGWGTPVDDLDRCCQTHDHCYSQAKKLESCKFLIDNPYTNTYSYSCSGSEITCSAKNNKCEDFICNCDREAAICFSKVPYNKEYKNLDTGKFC
Described as above. The test is classed as biochemical. Conditions: mouse pancreas secreted PLA2; read-out: ILYPSA IC50 mps PLA2.

T1 sequence (P04054 23-148): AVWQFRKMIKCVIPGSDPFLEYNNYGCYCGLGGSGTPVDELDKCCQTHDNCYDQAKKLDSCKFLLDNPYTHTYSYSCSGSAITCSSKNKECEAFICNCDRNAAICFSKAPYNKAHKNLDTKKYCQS

With `Cc1c(C(=O)C(N)=O)c2c(OCC(=O)O)cccc2n1CCCCCCCCSCCCCCCCCSCCCCCCCCn1c(C)c(C(=O)C(N)=O)c2c(OCC(=O)O)cccc21` [ILY-V-24, 2,2′-(1,1′-(8,8′-(Octane-1,8-diylbis(sulfanediyl))bis(octane-8,1-diyl))bis(3-(2-amino-2-oxoacetyl)-2-methyl-1H-indole-4,1-diyl))bis(oxy)diacetic acid], the IC50 amounted to 540 nM in test [1] and 1050 nM in test [2].
